# Experimental data published in the supplement of paper PMC10307832.
# Experiments:
# Test in all cases: relative viability (nuclei count vs DMSO), 5 days (fraction); higher = more cells survive
# 201T = system: 201T
# Summary of the method: (§1)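 For relative viability, nuclei counts in treated wells were divided by those in vehicle wells. Lung cancer cell lines had been pin-tool dosed in 1536-well plates the day after seeding and cultured for 5 days, then fixed and stained in one step (final 0.05% Triton X-100, 1% formaldehyde, 1 ug/ml Hoechst) and imaged at 4×. Doses were one drug alone or a fixed anchor-drug dose plus five library-drug doses (not always all listed) in √10 steps, and values are duplicate-plate medians.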
# BEN = system: BEN
# Summary of the method: as §1
# CAL-12T = system: CAL-12T
# Summary of the method: as §1
# HCC-44 = system: HCC-44
# Summary of the method: as §1
# HCC-827 = system: HCC-827
# Summary of the method: as §1
# HOP-62 = system: HOP-62
# Summary of the method: as §1
# LCLC-103H = system: LCLC-103H
# Summary of the method: as §1
# LCLC-97TM1 = system: LCLC-97TM1
# Summary of the method: as §1
# LXF-289 = system: LXF-289
# Summary of the method: as §1
# NCI-H1355 = system: NCI-H1355
# Summary of the method: as §1
# NCI-H1395 = system: NCI-H1395
# Summary of the method: as §1
# NCI-H1437 = system: NCI-H1437
# Summary of the method: as §1
# NCI-H1793 = system: NCI-H1793
# Summary of the method: as §1
# NCI-H2023 = system: NCI-H2023
# Summary of the method: as §1
# NCI-H2087 = system: NCI-H2087
# Summary of the method: as §1
# NCI-H2228 = system: NCI-H2228
# Summary of the method: as §1
# NCI-H2405 = system: NCI-H2405
# Summary of the method: as §1
# NCI-H3122 = system: NCI-H3122
# Summary of the method: as §1
# NCI-H322M = system: NCI-H322M
# Summary of the method: as §1
# NCI-H647 = system: NCI-H647
# Summary of the method: as §1
# NCI-H727 = system: NCI-H727
# Summary of the method: as §1
# RERF-LC-KJ = system: RERF-LC-KJ
# Summary of the method: as §1
# SK-LU-1 = system: SK-LU-1
# Summary of the method: as §1
compound,measurement,setting,value
Clc1ccc(Nc2nnc(Cc3ccncc3)c3ccccc23)cc1 [Vatalanib] + C[C@]1(O)C[C@@H](c2nc(-c3ccc4ccc(-c5ccccc5)nc4c3)c3c(N)nccn32)C1 [Linsitinib] (partner 1 µM),relative viability,201T; first compound 0.04 µM,1.02
same,relative viability,201T; first compound 0.1265 µM,1.04
same,relative viability,201T; first compound 0.4 µM,1.02
same,relative viability,201T; first compound 1.265 µM,0.985
same,relative viability,201T; first compound 4 µM,0.949
same,relative viability,BEN; first compound 0.04 µM,0.992
same,relative viability,BEN; first compound 0.1265 µM,0.785
same,relative viability,BEN; first compound 0.4 µM,0.99
same,relative viability,BEN; first compound 1.265 µM,0.943
same,relative viability,BEN; first compound 4 µM,0.97
same,relative viability,CAL-12T; first compound 0.04 µM,0.826
same,relative viability,CAL-12T; first compound 0.1265 µM,0.787
same,relative viability,CAL-12T; first compound 0.4 µM,0.848
same,relative viability,CAL-12T; first compound 1.265 µM,0.755
same,relative viability,CAL-12T; first compound 4 µM,0.822
same,relative viability,HCC-44; first compound 0.04 µM,0.683
same,relative viability,HCC-44; first compound 0.1265 µM,0.643
same,relative viability,HCC-44; first compound 0.4 µM,0.676
same,relative viability,HCC-44; first compound 1.265 µM,0.636
same,relative viability,HCC-44; first compound 4 µM,0.679
same,relative viability,HCC-827; first compound 0.04 µM,0.992
same,relative viability,HCC-827; first compound 0.1265 µM,0.925
same,relative viability,HCC-827; first compound 0.4 µM,0.95
same,relative viability,HCC-827; first compound 1.265 µM,0.936
same,relative viability,HCC-827; first compound 4 µM,0.905
same,relative viability,HOP-62; first compound 0.04 µM,0.785
same,relative viability,HOP-62; first compound 0.4 µM,1.02
same,relative viability,HOP-62; first compound 1.265 µM,0.922
same,relative viability,HOP-62; first compound 4 µM,0.876
same,relative viability,LCLC-103H; first compound 0.04 µM,1.24
same,relative viability,LCLC-103H; first compound 0.1265 µM,1.07
same,relative viability,LCLC-103H; first compound 0.4 µM,1.24
same,relative viability,LCLC-103H; first compound 1.265 µM,1.06
same,relative viability,LCLC-103H; first compound 4 µM,1.05
same,relative viability,LCLC-97TM1; first compound 0.04 µM,0.183
same,relative viability,LCLC-97TM1; first compound 0.1265 µM,0.17
same,relative viability,LCLC-97TM1; first compound 0.4 µM,0.189
same,relative viability,LCLC-97TM1; first compound 1.265 µM,0.159
same,relative viability,LCLC-97TM1; first compound 4 µM,0.179
same,relative viability,LXF-289; first compound 0.04 µM,1.04
same,relative viability,LXF-289; first compound 0.1265 µM,0.947
same,relative viability,LXF-289; first compound 0.4 µM,0.957
same,relative viability,LXF-289; first compound 1.265 µM,0.888
same,relative viability,LXF-289; first compound 4 µM,0.919
same,relative viability,NCI-H1355; first compound 0.04 µM,0.87
same,relative viability,NCI-H1355; first compound 0.1265 µM,0.818
same,relative viability,NCI-H1355; first compound 0.4 µM,0.915
same,relative viability,NCI-H1355; first compound 1.265 µM,0.772
same,relative viability,NCI-H1355; first compound 4 µM,0.763
same,relative viability,NCI-H1395; first compound 0.04 µM,1.14
same,relative viability,NCI-H1395; first compound 0.1265 µM,0.99
same,relative viability,NCI-H1395; first compound 0.4 µM,1.63
same,relative viability,NCI-H1395; first compound 1.265 µM,0.998
same,relative viability,NCI-H1395; first compound 4 µM,0.86
same,relative viability,NCI-H1437; first compound 0.04 µM,1.09
same,relative viability,NCI-H1437; first compound 0.1265 µM,1.03
same,relative viability,NCI-H1437; first compound 0.4 µM,1.14
same,relative viability,NCI-H1437; first compound 1.265 µM,0.956
same,relative viability,NCI-H1437; first compound 4 µM,1.08
same,relative viability,NCI-H1793; first compound 0.04 µM,0.857
same,relative viability,NCI-H1793; first compound 0.1265 µM,0.693
same,relative viability,NCI-H1793; first compound 0.4 µM,0.816
same,relative viability,NCI-H1793; first compound 1.265 µM,0.719
same,relative viability,NCI-H1793; first compound 4 µM,0.819
same,relative viability,NCI-H2023; first compound 0.04 µM,0.726
same,relative viability,NCI-H2023; first compound 0.1265 µM,0.735
same,relative viability,NCI-H2023; first compound 0.4 µM,0.815
same,relative viability,NCI-H2023; first compound 1.265 µM,0.571
same,relative viability,NCI-H2023; first compound 4 µM,0.705
same,relative viability,NCI-H2087; first compound 0.04 µM,1.2
same,relative viability,NCI-H2087; first compound 0.1265 µM,0.87
same,relative viability,NCI-H2087; first compound 0.4 µM,1.04
same,relative viability,NCI-H2087; first compound 1.265 µM,0.908
same,relative viability,NCI-H2087; first compound 4 µM,1.05
same,relative viability,NCI-H2228; first compound 0.04 µM,0.825
same,relative viability,NCI-H2228; first compound 0.1265 µM,0.508
same,relative viability,NCI-H2228; first compound 0.4 µM,0.83
same,relative viability,NCI-H2228; first compound 1.265 µM,0.664
same,relative viability,NCI-H2228; first compound 4 µM,0.761
same,relative viability,NCI-H2405; first compound 0.04 µM,0.951
same,relative viability,NCI-H2405; first compound 0.1265 µM,0.901
same,relative viability,NCI-H2405; first compound 1.265 µM,0.868
same,relative viability,NCI-H2405; first compound 4 µM,0.93
same,relative viability,NCI-H3122; first compound 0.04 µM,1.14
same,relative viability,NCI-H3122; first compound 0.1265 µM,0.97
same,relative viability,NCI-H3122; first compound 0.4 µM,0.961
same,relative viability,NCI-H3122; first compound 1.265 µM,1.02
same,relative viability,NCI-H3122; first compound 4 µM,1.02
same,relative viability,NCI-H322M; first compound 0.04 µM,0.939
same,relative viability,NCI-H322M; first compound 0.1265 µM,0.83
same,relative viability,NCI-H322M; first compound 0.4 µM,0.975
same,relative viability,NCI-H322M; first compound 1.265 µM,0.959
same,relative viability,NCI-H322M; first compound 4 µM,0.919
same,relative viability,NCI-H647; first compound 0.04 µM,1.02
same,relative viability,NCI-H647; first compound 0.1265 µM,1.14
same,relative viability,NCI-H647; first compound 0.4 µM,1.2
same,relative viability,NCI-H647; first compound 1.265 µM,1.21
same,relative viability,NCI-H647; first compound 4 µM,1.09
same,relative viability,NCI-H727; first compound 0.04 µM,0.3
same,relative viability,NCI-H727; first compound 0.1265 µM,0.184
same,relative viability,NCI-H727; first compound 0.4 µM,0.358
same,relative viability,NCI-H727; first compound 1.265 µM,0.236
same,relative viability,NCI-H727; first compound 4 µM,0.285
same,relative viability,RERF-LC-KJ; first compound 0.04 µM,0.932
same,relative viability,RERF-LC-KJ; first compound 0.1265 µM,0.875
same,relative viability,RERF-LC-KJ; first compound 0.4 µM,0.933
same,relative viability,RERF-LC-KJ; first compound 1.265 µM,0.762
same,relative viability,RERF-LC-KJ; first compound 4 µM,0.812
same,relative viability,SK-LU-1; first compound 0.04 µM,1.45
same,relative viability,SK-LU-1; first compound 0.1265 µM,1.13
same,relative viability,SK-LU-1; first compound 0.4 µM,1.28
same,relative viability,SK-LU-1; first compound 1.265 µM,1.04
same,relative viability,SK-LU-1; first compound 4 µM,1.03
